Measured values as given in patent US11518788B2, “Methods and compositions for treating and preventing viral infection” (priority 2020, dated 2022).

Tests used:
SARS-CoV-2 pseudovirus = type: cell-based
SARS-CoV pseudovirus = type: cell-based

Substance	inhibition of SARS-CoV-2 pseudovirus entry (SARS-CoV-2 pseudovirus)	percent infection of SARS-CoV-2 pseudovirus particles (SARS-CoV-2 pseudovirus)	inhibition of SARS-CoV pseudovirus entry (SARS-CoV pseudovirus)	efficiency of inhibition of SARS-CoV-2 compared with SARS-CoV and MERS CoV (SARS-CoV-2 pseudovirus)
ACE2-Fc	inhibited	reduced percent infection	inhibited	
heparin [reference compound]				more efficiently than it does for SARS-CoV and MERS CoV
